# Test results published in ChEMBL document CHEMBL1201862, “PubChem BioAssay data set” (2004).
#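 Compound exposure: 48 hours, 5 concentrations, 96-well plates. Abbreviation: GI50, concentration required for 50% inhibition of growth.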 Active and inactive are the calls of the source. Rule as the data show it: active = GI50 up to about 1.1 µM and inactive = higher.
# Tests used:
# Assay in all cases: growth of human tumour cells (NCI), 48 h
# SK-MEL-28 = test system: SK-MEL-28
# TK-10 = test system: TK-10
# HCT-15 = test system: HCT-15
# OVCAR-8 = test system: OVCAR-8
# SNB-19 = test system: SNB-19
# SN12C = test system: SN12C
# NCI-H460 = test system: NCI-H460
# SF-295 = test system: SF-295
# SW-620 = test system: SW-620
# OVCAR-4 = test system: OVCAR-4
# HOP-62 = test system: HOP-62
# SF-539 = test system: SF-539
# HL-60 = test system: HL-60
# UACC-257 = test system: UACC-257
# LOX IMVI = test system: LOX IMVI
# COLO 205 = test system: COLO 205
# HCC 2998 = test system: HCC 2998
SMILES,GI50 (SK-MEL-28),GI50 (TK-10),GI50 (HCT-15),GI50 (OVCAR-8),GI50 (SNB-19),GI50 (SN12C),GI50 (NCI-H460),GI50 (SF-295),GI50 (SW-620),GI50 (OVCAR-4),GI50 (HOP-62),GI50 (SF-539),GI50 (HL-60),GI50 (UACC-257),GI50 (LOX IMVI),GI50 (COLO 205),GI50 (HCC 2998)
Cc1c2n(c(=O)[nH]c1=O)C1OC(CO)C(O2)C1N=[N+]=[N-] (configuration not stated),> 100 µM (inactive),> 100 µM (inactive),> 100 µM,> 100 µM (inactive),> 100 µM (inactive),> 100 µM (inactive),> 100 µM (inactive),> 100 µM (inactive),> 100 µM (inactive),> 100 µM (inactive),> 100 µM (inactive),> 100 µM (inactive),> 100 µM (inactive),> 100 µM (inactive),> 100 µM (inactive),> 100 µM (inactive),–
COc1ccc(-c2cnoc2-c2ccc(OC)c(OC)c2)cc1OC,1.62 µM (inactive),3.85 µM (inactive),0.4 µM,3.1 µM (inactive),4.15 µM (inactive),3.04 µM (inactive),2.48 µM (inactive),0.883 µM (active),0.414 µM (active),18.9 µM (inactive),1.1 µM (active),1.2 µM (inactive),0.313 µM (active),5.53 µM (inactive),1.42 µM (inactive),1.18 µM (inactive),1.05 µM (active)
COC(=O)c1c(C(=O)OC)c2cc(C(=O)c3ccccc3)ccn2c1Cl,35.8 µM (inactive),67.1 µM (inactive),20.9 µM,30 µM (inactive),34 µM (inactive),49.8 µM (inactive),50 µM (inactive),26.4 µM (inactive),71 µM (inactive),31.2 µM (inactive),37.2 µM (inactive),48.6 µM (inactive),22.8 µM (inactive),–,36.1 µM (inactive),35.8 µM (inactive),> 100 µM (inactive)
O=C1C=C[C@@]23CC1C(O)C[C@H]2C=Cc1ccccc13 (some centres not stated),–,–,82.2 µM,> 100 µM (inactive),> 100 µM (inactive),> 100 µM (inactive),> 100 µM (inactive),> 100 µM (inactive),> 100 µM (inactive),> 100 µM (inactive),> 100 µM (inactive),> 100 µM (inactive),> 100 µM (inactive),> 100 µM (inactive),> 100 µM (inactive),> 100 µM (inactive),> 100 µM (inactive)
O=C1/C(=C/c2ccccc2)CN(C(=O)C(F)(F)F)C/C1=C\c1ccccc1,1.83 µM (inactive),3.61 µM (inactive),2.03 µM,1.64 µM (inactive),4.28 µM (inactive),1.7 µM (inactive),1.56 µM (inactive),1.59 µM (inactive),0.48 µM (active),2.44 µM (inactive),11.5 µM (inactive),1.86 µM (inactive),0.733 µM (active),1.66 µM (inactive),1.22 µM (inactive),2.42 µM (inactive),–
COc1ccc(C2S/C(=C\c3cccc(OC)c3)C(=O)N2NC(=O)Cc2ccccc2)cc1 (configuration not stated),> 100 µM (inactive),> 100 µM (inactive),> 100 µM,> 100 µM (inactive),–,> 100 µM (inactive),> 100 µM (inactive),> 100 µM (inactive),> 100 µM (inactive),> 100 µM (inactive),> 100 µM (inactive),> 100 µM (inactive),> 100 µM (inactive),> 100 µM (inactive),> 100 µM (inactive),> 100 µM (inactive),–
O=[N+]([O-])c1cccc(C2=NOC(C3CCCCC3)C2)c1 (configuration not stated),> 100 µM (inactive),> 100 µM (inactive),> 100 µM,> 100 µM (inactive),–,> 100 µM (inactive),> 100 µM (inactive),94.6 µM (inactive),> 100 µM (inactive),> 100 µM (inactive),> 100 µM (inactive),> 100 µM (inactive),> 100 µM (inactive),> 100 µM (inactive),–,> 100 µM (inactive),> 100 µM (inactive)
O=C(c1ccccc1)N1CCN2CCN=C(c3ccccc3)C21c1ccccc1 (configuration not stated),> 100 µM (inactive),> 100 µM (inactive),–,> 100 µM (inactive),38 µM (inactive),–,94.8 µM (inactive),52.1 µM (inactive),> 100 µM (inactive),29.4 µM (inactive),> 100 µM (inactive),71.3 µM (inactive),19.2 µM (inactive),25.8 µM (inactive),> 100 µM (inactive),> 100 µM (inactive),> 100 µM (inactive)
CCc1cc(C(=O)OC)cn1C(=N)c1ccc(Cl)cc1,> 100 µM (inactive),> 100 µM (inactive),> 100 µM,> 100 µM (inactive),> 100 µM (inactive),> 100 µM (inactive),> 100 µM (inactive),> 100 µM (inactive),> 100 µM (inactive),> 100 µM (inactive),> 100 µM (inactive),> 100 µM (inactive),> 100 µM (inactive),> 100 µM (inactive),> 100 µM (inactive),> 100 µM (inactive),> 100 µM (inactive)
